# Like-named read-outs stand apart in the source and are kept apart here.
# Assays:
# [1] = rat, in vivo
# [2] = system: soluble VEGF121 and VEGF165 isoforms; assay: ELISA of soluble VEGF production in multiple human tumor cell lines (EC50); type: cell-based
# Procedure: Study Design. […] In these experiments, cultures were established under normoxic conditions (21% oxygen). […] Cells requiring induction of VEGF production were incubated under hypoxic conditions (1% oxygen). At the completion of treatment, the conditioned media were collected and assayed by ELISA (as described in Section 9.1.1.1) for soluble VEGF121 and VEGF165 isoforms; results were calculated as percentage inhibition relative to vehicle treated controls. EC50 values were calculated from the dose concentration response curves.
# [3] = Dose response assessment in nude mice bearing HT1080 xenografts (tumor and plasma human VEGF, tumor size, trough plasma concentration); type: in vivo; settings: male, athymic nude, mouse, plasma, oral; 1 mg/kg BID, 16 hours after the first day of dosing (n=3)
# Procedure: Experimental Study Design. HT1080 cells (5×10^6 cells/mouse) were implanted subcutaneously in male athymic nude mice.
# Tumor size was measured using calipers at periodic intervals during the study (data shown in Section 9.2.2). […] Mice were sacrificed, and excised tumors were homogenized in buffer containing protease inhibitors. Both terminal intratumoral and pathologic plasma human VEGF levels were measured using an ELISA that recognizes human VEGF121 and VEGF165 (as described in Section 9.1.1.1). Intratumoral VEGF levels were normalized to the total tumor protein concentration, while pathologic plasma human VEGF levels were expressed in pg/mL of plasma.
# Experimental Design. The experimental design was reported in Section 9.1.2.2.
# [4] = In vitro plasma protein binding of 14C-Compound #10; type: in vitro ADME, mice, rats, dogs, monkeys, and humans; settings: mouse, rat, dog, monkey, human, all species, read-out: plasma protein binding, overall mean
# [5] = Single-dose oral toxicity study in rats; settings: Sprague Dawley, rat, in vivo
# Procedure: The L23 vehicle was used.
# Because maximal exposure occurred at 100 mg/kg, this dose is considered the NOAEL for 1 day of dosing.
compound,measurement,setting,value
COc1ccc([C@H]2c3[nH]c4ccc(Cl)cc4c3CCN2C(=O)Oc2ccc(Cl)cc2)cc1 (racemic) [Compound #10],dose of maximal exposures,"[1]; both, Sprague Dawley, 7 days",120 mg/kg/day
same,elevation in mean cholesterol levels,[1],2.5-3 fold
same,elevation in mean glucose levels,[1],about 1.3 fold
same,EC50,"[2]; A-375, Melanoma, A375, hypoxic (1% oxygen), 48 hours, read-out: VEGF Inhibition Approximate EC50",~50 nM
same,EC50,"[2]; A-431, Epidermoid, A431, 48 hours, read-out: VEGF Inhibition Approximate EC50",~10 nM
same,EC50,"[2]; ASPC1, ASPC-1 (Pancreas), 48 hours, read-out: VEGF Inhibition EC50",> 30000 nM
same,EC50,"[2]; Breast, MDA-MB-468, hypoxic (1% oxygen), 48 hours, read-out: VEGF Inhibition Approximate EC50",~5 nM
same,EC50,"[2]; Cervical, HeLa, hypoxic (1% oxygen), 48 hours, read-out: VEGF Inhibition Approximate EC50",~2 nM
same,EC50,"[2]; Colorectal, HCT-116, 48 hours, read-out: VEGF Inhibition Approximate EC50",~10 nM
same,EC50,"[2]; Gastric, AGS, 48 hours, read-out: VEGF Inhibition Approximate EC50",~0.1 nM
same,EC50,"[2]; Gastric, Kato III, hypoxic (1% oxygen), 48 hours, read-out: VEGF Inhibition Approximate EC50",~10 nM
same,EC50,"[2]; HCT-116, HCT116 (Colorectal), 48 hours, read-out: VEGF Inhibition EC50",10 nM
same,EC50,"[2]; HEK293 (Renal cell), 48 hours, read-out: VEGF Inhibition EC50",10 nM
same,EC50,"[2]; HPAF-2 (Pancreas), 48 hours, read-out: VEGF Inhibition EC50",> 30000 nM
same,EC50,"[2]; HT-1080, Fibrosarcoma, HT1080, 48 hours, read-out: VEGF Inhibition Approximate EC50",~10 nM
same,EC50,"[2]; HT-1080, HT1080 (Fibrosarcoma), 48 hours, read-out: VEGF Inhibition EC50",10 nM
same,EC50,"[2]; HeLa (Cervical), 48 hours, read-out: VEGF Inhibition EC50",2 nM
same,EC50,"[2]; Lung, A549, 48 hours, read-out: VEGF Inhibition Approximate EC50",~50 nM
same,EC50,"[2]; Lung, Calu-6, hypoxic (1% oxygen), 48 hours, read-out: VEGF Inhibition Approximate EC50",~7 nM
same,EC50,"[2]; Lung, NCI H460, 48 hours, read-out: VEGF Inhibition Approximate EC50",~10 nM
same,EC50,"[2]; MDA-MB-231, 48 h, read-out: VEGF Inhibition Approximate EC50",~5 nM
same,EC50,"[2]; NCI H460 (Lung), 48 hours, read-out: VEGF Inhibition EC50",10 nM
same,EC50,"[2]; Neuroblastoma, SY5Y, hypoxic (1% oxygen), 48 hours, read-out: VEGF Inhibition Approximate EC50",~5 nM
same,EC50,"[2]; PL45, PL-45 (Pancreas), 48 hours, read-out: VEGF Inhibition EC50",> 30000 nM
same,EC50,"[2]; Pancreas, Capan-1, hypoxic (1% oxygen), 48 hours, read-out: VEGF Inhibition Approximate EC50",~5 nM
same,EC50,"[2]; Prostate, LNCaP, hypoxic (1% oxygen), 48 hours, read-out: VEGF Inhibition Approximate EC50",~15 nM
same,EC50,"[2]; Renal cell, HEK293, 48 hours, read-out: VEGF Inhibition Approximate EC50",~10 nM
same,EC50,"[2]; SK-OV-3, Ovarian, SKOV3, hypoxic (1% oxygen), 48 hours, read-out: VEGF Inhibition Approximate EC50",~10 nM
same,EC50,"[2]; SNU1, Gastric, SNU-1, 48 hours, read-out: VEGF Inhibition Approximate EC50",~0.1 nM
same,EC50,"[2]; U-87MG (Glioblastoma), 48 hours, read-out: VEGF Inhibition EC50",> 30000 nM
same,concentration at 16 h,[3],280 nM
same,fraction unbound,[4],≤ 0.005
same,dose of maximal exposure,[5],100 mg/kg

# — patent publication US20120202801A1, “METHODS FOR TREATING BREAST CANCER” (priority 2009, published 2012)
